In patent EP0324390A2, “Nigericin derivatives, method for their preparation, compositions containing them and use of these compositions” (priority 1988, dated 1989):
Values after ≈ are worked out from the molar mass of the structure shown.

Tests used:
Assay in all cases: Agar dilution test according to Lorian (antibacterial activity)
Assay type in all cases: cell-based
Strept. pyogenes (308 A) = test system: Strept. pyogenes (308 A)
Experimental: (§1) Die antibakterielle Wirksamkeit der erfindungsgemäßen Verbindungen wurde im Agar-Verdünnungstest nach Lorian (Antibiotics in Laboratory Medicine, Williams & Wilkins, Baltimore/London, 1980) bestimmt. Dabei wurden die Präparate in einer geometrischen Verdünnungsreihe mit dem Faktor 2 in Müller Hinton Agar verdünnt. Eine Petrischale enthielt nur Müller Hinton Agar und diente zur Kontrolle des Bakterienwachstums. Die Petrischalen wurden dann mit einem Denley-Multipoint-Inokulator, welcher 0,6 ul einer 1 : 100 verdünnten 18-Stunden-Kultur der Testbakterien übertrug, mit den entsprechenden Testbakterien beimpft. Nach 16 bis 18 Stunden Inkubation bei 37^. C wurden die Petrischalen makroskopisch auf Bakterienwachstum untersucht.
(§2) Die niedrigste Konzentration der erfindungsgemäßen Verbindungen, welche das Bakterienwachstum noch vollständig verhinderte, wurde als MIC (Minimum Inhibitory Concentration) angenommen.
(§3) In Tabelle 4 ist die Wirkung (Angabe des MIC in µg/ml) von verschiedenen erfindungsgemäßen Verbindungen gegen folgende Bakterien aufgeführt: • Staph. aureus (SG 511), Staph. aureus (285), Staph. aureus (503), Strept. pyogenes (308 A), Strept pyogenes (77 A), Strept. faecium (D).

Strept. faecium (D) = test system: Strept. faecium (D)
Experimental: as §1, §2, §3

Staph. aureus (SG 511) = test system: Staph. aureus (SG 511)
Experimental: as §1, §2, §3

Staph. aureus (503) = test system: Staph. aureus (503)
Experimental: as §1, §2, §3

Staph. aureus (285) = test system: Staph. aureus (285)
Experimental: as §1, §2, §3

Strept. pyogenes (77 A) = test system: Strept. pyogenes (77 A)
Experimental: as §1, §2, §3

[1] = Müller Hinton Agar, 16 to 18 h at 37 C, lowest concentration fully preventing growth

SMILES	MIC (Strept. pyogenes (308 A); [1])	MIC (Strept. faecium (D); [1])	MIC (Staph. aureus (SG 511); [1])	MIC (Staph. aureus (503); [1])	MIC (Staph. aureus (285); [1])	MIC (Strept. pyogenes (77 A); [1])	MIC (Strept. pyogenes (308 A); Streptococcus pyogenes) [mg/L]	MIC (Strept. faecium (D); Enterococcus faecium) [mg/L]	MIC (Staph. aureus (SG 511); Staphylococcus aureus) [mg/L]	MIC (Staph. aureus (503); Staphylococcus aureus) [mg/L]	MIC (Staph. aureus (285); Staphylococcus aureus) [mg/L]	MIC (Strept. pyogenes (77 A); Streptococcus pyogenes) [mg/L]
COC1CC(CC2CCC(C)C(C(C)C(=O)O)O2)OC2(OC(C)(C3CCC(C)(C4OC(C5OC(O)(COC(=O)NCc6ccccc6)C(C)CC5C)CC4C)O3)CC2C)C1C (stereo not drawn) [Beispiel 13]	0,78 µg/ml	12,5 µg/ml	3,13 µg/ml	3,13 µg/ml	6,25 µg/ml	0,39 µg/ml						
CCCCCCCCCCCCCCCCCCCCCC(=O)OCC1(O)OC(C2CC(C)C(C3(C)CCC(C4(C)CC(C)C5(OC(CC6CCC(C)C(C(C)C(=O)O)O6)CC(OC)C5C)O4)O3)O2)C(C)CC1C (stereo not drawn) [Beispiel 30]							25 (≈ 23.9 µM)	100 (≈ 95.5 µM)	100 (≈ 95.5 µM)	50 (≈ 47.7 µM)	100 (≈ 95.5 µM)	25 (≈ 23.9 µM)
COC1CC(CC2CCC(C)C(C(C)C(=O)O)O2)OC2(OC(C)(C3CCC(C)(C4OC(C5OC(O)(COC(=O)C=C(C)C(=O)O)C(C)CC5C)CC4C)O3)CC2C)C1C (stereo not drawn) [Beispiel 22]							0.78 (≈ 0.932 µM)	6.25 (≈ 7.47 µM)	6.25 (≈ 7.47 µM)	6.25 (≈ 7.47 µM)	6.25 (≈ 7.47 µM)	0.78 (≈ 0.932 µM)
COC1CC(CC2CCC(C)C(C(C)C(=O)O)O2)OC2(OC(C)(C3CCC(C)(C4OC(C5OC(COS(C)(=O)=O)(OC)C(C)CC5C)CC4C)O3)CC2C)C1C (stereo not drawn) [Beispiel 20]							6.25 (≈ 7.65 µM)	25 (≈ 30.6 µM)	25 (≈ 30.6 µM)	12.5 (≈ 15.3 µM)	25 (≈ 30.6 µM)	6.25 (≈ 7.65 µM)
COC1CC(CC2CCC(C)C(C(C)C(=O)O)O2)OC2(OC(C)(C3CCC(C)(C4OC(C5OC(O)(COC(=O)COc6ccccc6)C(C)CC5C)CC4C)O3)CC2C)C1C (stereo not drawn) [Beispiel 3]	0,049 µg/ml	0,781 µg/ml	0,391 µg/ml	0,391 µg/ml	0,391 µg/ml	0,049 µg/ml						
COC1CC(CC2CCC(C)C(C(C)C(=O)O)O2)OC2(OC(C)(C3CCC(C)(C4OC(C5OC(O)(COC(=O)CCC(=O)O)C(C)CC5C)CC4C)O3)CC2C)C1C (stereo not drawn) [Beispiel 11]	0,025 µg/ml	0,391 µg/ml	0,391 µg/ml	0,098 µg/ml	0,195 µg/ml	0,025 µg/ml						
CCOC1(CO)OC(C2CC(C)C(C3(C)CCC(C4(C)CC(C)C5(OC(CC6CCC(C)C(C(C)C(=O)O)O6)CC(OC)C5C)O4)O3)O2)C(C)CC1C (stereo not drawn) [Beispiel 17]	0,098 µg/ml	1,56 µg/ml	1,56 µg/ml	0,78 µg/ml	1,56 µg/ml	0,098 µg/ml						
COC1CC(CC2CCC(C)C(C(C)C(=O)O)O2)OC2(OC(C)(C3CCC(C)(C4OC(C5OC(CO)(OC)C(C)CC5C)CC4C)O3)CC2C)C1C (stereo not drawn) [Beispiel 16]	0,39 µg/ml	3,13 µg/ml	1,56 µg/ml	1,56 µg/ml	1,56 µg/ml	0,39 µg/ml						
COC1CC(CC2CCC(C)C(C(C)C(=O)[O-])O2)OC2(OC(C)(C3CCC(C)(C4OC(C5OC(O)(COC(=O)CCC(=O)[O-])C(C)CC5C)CC4C)O3)CC2C)C1C.[Mg+2] (stereo not drawn) [Beispiel 37]	0,007 µg/ml	0,098 µg/ml	0,098 µg/ml	0,049 µg/ml	0,098 µg/ml	0,007 µg/ml						
COC1CC(CC2CCC(C)C(C(C)C(=O)O)O2)OC2(OC(C)(C3CCC(C)(C4OC(C5OC(O)(COC(C)=O)C(C)CC5C)CC4C)O3)CC2C)C1C (stereo not drawn) [Beispiel 5]	0,098 µg/ml	0,781 µg/ml	0,391 µg/ml	0,391 µg/ml	0,391 µg/ml	0,098 µg/ml						
COC1CC(CC2CCC(C)C(C(C)C(=O)O)O2)OC2(OC(C)(C3CCC(C)(C4OC(C5OC(O)(COC(=O)CCOc6ccccc6)C(C)CC5C)CC4C)O3)CC2C)C1C (stereo not drawn) [Beispiel 4]	0,098 µg/ml	1,56 µg/ml	0,78 µg/ml	0,78 µg/ml	1,56 µg/ml	0,098 µg/ml						
COC1CC(CC2CCC(C)C(C(C)C(=O)O)O2)OC2(OC(C)(C3CCC(C)(C4OC(C5OC(O)(COC(=O)c6ccco6)C(C)CC5C)CC4C)O3)CC2C)C1C (stereo not drawn) [Beispiel 8]	0,013 µg/ml	0,391 µg/ml	0,195 µg/ml	0,195 µg/ml	0,391 µg/ml	0,013 µg/ml						
COC1CC(CC2CCC(C)C(C(C)C(=O)O)O2)OC2(OC(C)(C3CCC(C)(C4OC(C5OC(O)(COS(=O)(=O)O)C(C)CC5C)CC4C)O3)CC2C)C1C (stereo not drawn) [Beispiel 15]	1,56 µg/ml	3,13 µg/ml	1,56 µg/ml	0,78 µg/ml	1,56 µg/ml	0,78 µg/ml						
COC1CC(CC2CCC(C)C(C(C)C(=O)O)O2)OC2(OC(C)(C3CCC(C)(C4OC(C5OC(O)(COC(=O)C=CC(=O)O)C(C)CC5C)CC4C)O3)CC2C)C1C (stereo not drawn) [Beispiel 23]								0.39 (≈ 0.474 µM)				
COC1CC(CC2CCC(C)C(C(C)C(=O)O)O2)OC2(OC(C)(C3CCC(C)(C4OC(C5OC(O)(COS(C)(=O)=O)C(C)CC5C)CC4C)O3)CC2C)C1C (stereo not drawn) [Beispiel 2]	0,004 µg/ml	0,195 µg/ml	0,098 µg/ml	0,049 µg/ml	0,049 µg/ml	0,013 µg/ml						
COC1CC(CC2CCC(C)C(C(C)C(=O)O)O2)OC2(OC(C)(C3CCC(C)(C4OC(C5OC(O)(COC(=O)c6cccs6)C(C)CC5C)CC4C)O3)CC2C)C1C (stereo not drawn) [Beispiel 9]	0,007 µg/ml	0,195 µg/ml	0,049 µg/ml	0,049 µg/ml	0,195 µg/ml	0,007 µg/ml						
COC1CC(CC2CCC(C)C(C(C)C(=O)O)O2)OC2(OC(C)(C3CCC(C)(C4OC(C5OC(O)(COC(=O)C(C)C)C(C)CC5C)CC4C)O3)CC2C)C1C (stereo not drawn) [Beispiel 27]								> 100	0.39 (≈ 0.491 µM)	0.19 (≈ 0.239 µM)	0.39 (≈ 0.491 µM)	
COC1CC(CC2CCC(C)C(C(C)C(=O)O)O2)OC2(OC(C)(C3CCC(C)(C4OC(C5OC(O)(COC(=O)Nc6ccc(Cl)cc6)C(C)CC5C)CC4C)O3)CC2C)C1C (stereo not drawn) [Beispiel 14]	25,0 µg/ml	100,0 µg/ml	100,0 µg/ml	50,0 µg/ml	100,0 µg/ml	12,5 µg/ml						
COC1CC(CC2CCC(C)C(C(C)C(=O)O)O2)OC2(OC(C)(C3CCC(C)(C4OC(C5OC(O)(COC(=O)c6ccccc6)C(C)CC5C)CC4C)O3)CC2C)C1C (stereo not drawn) [Beispiel 6]	0,013 µg/ml	0,391 µg/ml	0,098 µg/ml	0,098 µg/ml	0,391 µg/ml	0,013 µg/ml						
CCCCCCCCCCCC(=O)OCC1(O)OC(C2CC(C)C(C3(C)CCC(C4(C)CC(C)C5(OC(CC6CCC(C)C(C(C)C(=O)O)O6)CC(OC)C5C)O4)O3)O2)C(C)CC1C (stereo not drawn) [Beispiel 10]	0,781 µg/ml	6,25 µg/ml	6,25 µg/ml	3,13 µg/ml	6,25 µg/ml	0,781 µg/ml						
COC1CC(CC2CCC(C)C(C(C)C(=O)[O-])O2)OC2(OC(C)(C3CCC(C)(C4OC(C5OC(O)(CO)C(C)CC5C)CC4C)O3)CC2C)C1C.[K+] (stereo not drawn) [Beispiel 34]	< 0,002 µg/ml	0,098 µg/ml	0,025 µg/ml	< 0,002 µg/ml	0,025 µg/ml	< 0,002 µg/ml						
COC1CC(CC2CCC(C)C(C(C)C(=O)O)O2)OC2(OC(C)(C3CCC(C)(C4OC(C5OC(O)(COC(=O)c6ccccc6C(=O)O)C(C)CC5C)CC4C)O3)CC2C)C1C (stereo not drawn) [Beispiel 31]									0.78 (≈ 0.893 µM)	0.78 (≈ 0.893 µM)	0.78 (≈ 0.893 µM)	
COC1CC(CC2CCC(C)C(C(C)C(=O)O)O2)OC2(OC(C)(C3CCC(C)(C4OC(C5OC(O)(COC(=O)Nc6ccccc6)C(C)CC5C)CC4C)O3)CC2C)C1C (stereo not drawn) [Beispiel 12]	0,098 µg/ml	1,56 µg/ml	0,781 µg/ml	0,78 µg/ml	3,13 µg/ml	0,098 µg/ml						
COC1CC(CC2CCC(C)C(C(C)C(=O)O)O2)OC2(OC(C)(C3CCC(C)(C4OC(C5OC(O)(COC(=O)c6c(Br)c(Br)c(Br)c(Br)c6C(=O)O)C(C)CC5C)CC4C)O3)CC2C)C1C (stereo not drawn) [Beispiel 29]								3.13 (≈ 2.63 µM)	1.56 (≈ 1.31 µM)	1.56 (≈ 1.31 µM)	3.13 (≈ 2.63 µM)	
COC1CC(CC2CCC(C)C(C(C)C(=O)O)O2)OC2(OC(C)(C3CCC(C)(C4OC(C5OC(O)(COC(=O)Cc6ccccc6)C(C)CC5C)CC4C)O3)CC2C)C1C (stereo not drawn) [Beispiel 7]	0,004 µg/ml	0,391 µg/ml	0,195 µg/ml	0,195 µg/ml	0,391 µg/ml	0,004 µg/ml						
